Data published in patent US4414332A (Boehringer Mannheim GmbH, priority 1980, dated 1983).
“Also recorded” adds a separate entry of the source. Like-named read-outs stand apart in the source and are kept apart here.

Target: T1, endoproteinase-Lys-C (Lysobacter enzymogenes, UniProt Q7M135)
T1 construct: consists of a chain of molecular weight 35000 to 38000 Dalton; made in house
Experiment: Inhibition of endoproteinase-Lys-C by protease inhibitors
Type: biochemical, Lysobacter enzymogenes ssp. enzymogenes

T1 sequence (Q7M135 whole entry): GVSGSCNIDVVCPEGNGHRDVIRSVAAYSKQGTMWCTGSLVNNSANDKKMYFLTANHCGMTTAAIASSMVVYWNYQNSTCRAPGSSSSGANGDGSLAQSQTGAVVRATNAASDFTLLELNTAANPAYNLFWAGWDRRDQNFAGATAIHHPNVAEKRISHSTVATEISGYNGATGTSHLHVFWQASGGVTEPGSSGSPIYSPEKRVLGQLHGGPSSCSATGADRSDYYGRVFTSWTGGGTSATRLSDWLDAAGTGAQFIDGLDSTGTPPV

Compound: N=C(N)c1ccccc1 [Benzamidine]
- inhibition at 2500 µM (at 2.5 mM, read-out: inhibition of the enzyme): ~50%

Compound: α1 -antitrypsin
- inhibition of the enzyme: not inhibited; also recorded: do not inhibit

Compound: α2 -macroglobulin
- inhibition of the enzyme: not inhibited
- inhibition of the enzyme (listed as alpha2 microglobulin): do not inhibit

Compound: aprotinin
- inhibition of the enzyme: inhibited
- inhibition of the enzyme (listed as Aprotonin): inhibits the enzyme completely

Compound: O=C(O)CN(CCN(CC(=O)O)CC(=O)O)CC(=O)O [ethylenediaminetetraacetic acid]
- inhibition of the enzyme: not inhibited
- inhibition of the enzyme (EDTA up to 10^-2 M): do not inhibit
